In the assay the test system is PBMCs from A*02:01 COVID-19 convalescent individuals. It is filed as cell-based, human.

Take YLQPRTFLL: the ELISpot response frequency is recorded as ~ 44% and the “ELISpot: HLA-matched individuals responding / tested” value is given as 11 out of 25.

Values taken from article PMC11604954 (Nature Communications, 2024).
